The values that follow come from article PMC11514582, “Leveraging the Aggregated Protein Dye YAT2150 for Malaria Chemotherapy” (Pharmaceutics, 2024).

One data set has as its target T1, CYP1A2 (Homo sapiens, UniProt P05177).
T1 sequence (P05177 1-516): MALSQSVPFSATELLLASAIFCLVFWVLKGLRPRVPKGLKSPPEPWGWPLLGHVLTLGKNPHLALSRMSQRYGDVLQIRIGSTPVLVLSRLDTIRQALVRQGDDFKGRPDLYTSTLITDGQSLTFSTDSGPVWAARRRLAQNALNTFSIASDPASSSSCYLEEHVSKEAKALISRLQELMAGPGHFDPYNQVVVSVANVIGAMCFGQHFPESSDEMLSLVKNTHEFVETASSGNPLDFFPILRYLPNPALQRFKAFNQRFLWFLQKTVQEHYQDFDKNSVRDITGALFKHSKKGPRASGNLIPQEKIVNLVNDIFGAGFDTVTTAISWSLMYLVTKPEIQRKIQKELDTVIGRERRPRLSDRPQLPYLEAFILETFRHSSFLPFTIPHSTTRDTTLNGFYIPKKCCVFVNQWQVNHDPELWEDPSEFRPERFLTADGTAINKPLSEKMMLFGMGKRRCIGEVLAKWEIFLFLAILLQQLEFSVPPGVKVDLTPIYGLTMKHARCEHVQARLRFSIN
Conditions: cited from earlier work.

Data set [1] is described as follows: Cytotoxicity assay in THP-1 (MTT). The data set is classed as cell-based. Conditions: human, THP-1 cells, read-out: THP-1 inhibition (CC50).
Experimental: THP-1 human acute monocytic leukemia cells and NCI-H460 human lung carcinoma cells were grown in RPMI supplemented with 10% FBS. Hep-G2 human hepatocellular carcinoma cells were cultured in Eagle’s minimum essential medium (EMEM) supplemented with 10% FBS. A2780 human ovarian carcinoma cells were grown in RPMI supplemented with 10% FBS and 2 mM L-glutamine. MCF-7 human breast adenocarcinoma cells were cultured in EMEM containing 2 mM L-glutamine and Earle’s balanced salt solution adjusted with 1.5 g/L sodium bicarbonate, 0.1 mM non-essential amino acids, and 1 mM sodium pyruvate and supplemented with 10% FBS. […] Except for Caco-2 and HUVEC, inhibition of cell growth was evaluated using a protocol based on monitoring the transformation into formazan of the tetrazolium salt of MTT (3-(4,5-dimethylthiazol-2-yl)-2,5-diphenyltretrazolium bromide) by metabolically active cells. […] After 96 further h of incubation in the same conditions, 10 µL of a 5 mg/mL MTT solution in PBS was added to each sample, and the incubation was resumed for another 4 h. […] The absorbance measurement range was framed between one sample containing 4000 cells in plain growth medium (to determine the stable cell concentration) and another sample containing an equal cell number in growth medium supplemented with growth factors (to measure the maximum cell growth at 96 h).
In data set [2] the test system is P. falciparum gametocytes. The conditions noted are these: cited from earlier work.
Another data set concerns 3D7 P. falciparum. The experiment in a line: Parasite-killing profile (parasite viability after 10x IC50). The conditions noted are these: treatment for 24 h with 10× IC50. The data set is classed as cell-based, Plasmodium falciparum. The method, then: After the treatment, the drug was removed and the culture diluted 1/3 and re-established in RBCs labeled with carboxyfluorescein diacetate succinimidyl ester (CFDA-SE, Life Technologies) to a 2% hematocrit in order to evaluate the reinfection capacity of the treated parasites. CFDA-SE-labelled erythrocytes were prepared by incubating 1% hematocrit in RPMI containing 10 μM CFDA-SE at 37 °C for 30 min, after which they were washed and maintained at 50% hematocrit at 4 °C for up to 24 h before use. Parasites were grown for 48 h, a complete replication cycle, in standard culturing conditions (5% O2, 5% CO2, and 90% N2 at 37 °C). After this incubation time, parasitemia was assessed by two-color flow cytometry (Attune NxT Flow Cytometer, Thermo Fisher Scientific, Inc.) using Hoechst 33342 to stain nuclei. Hoechst 33342 fluorescence signal was detected by exciting samples at 405 nm and collecting the emission with a 440/50-nm bandpass filter (VL1), whereas CFDA-SE was excited at 488 nm and detected with a 530/30 nm filter. Samples were analyzed using the Attune NxT software package 3.2.1, and parasite viability was plotted as the percentage of infected CFDA-SE-stained erythrocytes, using as reference untreated samples of the initial inoculum after 48 h of incubation with labeled erythrocytes.

Data set [3] can be described thus: Cytotoxicity across seven human cell lines. The format is cell-based. The conditions noted are these: range over cell types, read-out: CC50 in seven different human cell lines. The method, then:
THP-1 human acute monocytic leukemia cells and NCI-H460 human lung carcinoma cells were grown in RPMI supplemented with 10% FBS. Hep-G2 human hepatocellular carcinoma cells were cultured in Eagle’s minimum essential medium (EMEM) supplemented with 10% FBS. A2780 human ovarian carcinoma cells were grown in RPMI supplemented with 10% FBS and 2 mM L-glutamine. MCF-7 human breast adenocarcinoma cells were cultured in EMEM containing 2 mM L-glutamine and Earle’s balanced salt solution adjusted with 1.5 g/L sodium bicarbonate, 0.1 mM non-essential amino acids, and 1 mM sodium pyruvate and supplemented with 10% FBS. […] Except for Caco-2 and HUVEC, inhibition of cell growth was evaluated using a protocol based on monitoring the transformation into formazan of the tetrazolium salt of MTT (3-(4,5-dimethylthiazol-2-yl)-2,5-diphenyltretrazolium bromide) by metabolically active cells. […] The incubation was continued for an additional 12 to 14 h, and absorbance was measured at 595 nm (Tecan M1000 Infinite® Pro, Tecan Trading AG, Männedorf, Switzerland). The absorbance measurement range was framed between one sample containing 4000 cells in plain growth medium (to determine the stable cell concentration) and another sample containing an equal cell number in growth medium supplemented with growth factors (to measure the maximum cell growth at 96 h). […]

For the next data set, the target named is CYP3A4 (Homo sapiens, UniProt P08684). Nature of the data set: in vitro. Conditions: microsomes.
Sequence of CYP3A4 (P08684 whole entry): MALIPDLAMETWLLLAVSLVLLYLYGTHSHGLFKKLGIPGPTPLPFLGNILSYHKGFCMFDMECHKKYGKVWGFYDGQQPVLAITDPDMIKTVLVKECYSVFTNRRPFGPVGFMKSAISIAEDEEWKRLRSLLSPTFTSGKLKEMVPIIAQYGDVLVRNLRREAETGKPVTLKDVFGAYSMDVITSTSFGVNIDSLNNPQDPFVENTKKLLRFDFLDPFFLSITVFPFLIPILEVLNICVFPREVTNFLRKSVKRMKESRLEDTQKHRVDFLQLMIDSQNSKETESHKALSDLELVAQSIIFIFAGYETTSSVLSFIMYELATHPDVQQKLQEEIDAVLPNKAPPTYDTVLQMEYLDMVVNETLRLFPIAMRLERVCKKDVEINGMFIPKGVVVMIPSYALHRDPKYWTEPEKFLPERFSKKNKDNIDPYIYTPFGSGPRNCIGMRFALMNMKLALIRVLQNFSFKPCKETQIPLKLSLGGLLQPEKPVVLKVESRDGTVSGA
Data set [4] concerns the target recombinant human cytochrome P450 enzyme CYP3A4 (Homo sapiens, UniProt P08684). Nature of the data set: biochemical.
The conditions of data set [5]: human hepatocytes; cited from earlier work.

Read-outs that look alike come from different tables or passages of the source.

Sequence of recombinant human cytochrome P450 enzyme CYP3A4 (P08684 whole entry): as above

Take `CCN(CC)c1ccc(/C=C/c2cc[n+](CCCCCCCCCC[n+]3ccc(/C=C/c4ccc(N(CC)CC)cc4)c(C)c3)cc2C)cc1` [YAT2150]: on CYP1A2, the “CYP1A2 inhibition (% at 10 µM)” value is given as “around 50%”. The CC50 at 96 h in data set [1] worked out at 660 ± 10 nM. Also, the IC50 was around 100 nM in data set [2] (read-out: in vitro IC50 for P. falciparum gametocyte cultures); 95 ± 2 nM in data set [2] (stage I–III (early) gametocytes, read-out: IC50 in P. falciparum stage I–III gametocytes); 103 nM in data set [2] (stage V gametocytes, read-out: IC50 in P. falciparum stage V gametocytes (converted)); 1000 nM in data set [4]. Besides, the parasite survival in the data set with 3D7 P. falciparum was 8.5%. Further, in data set [3], the CC50 fell in the range of 590 to 18200 nM. The inhibition at 30 min, 10 µM at CYP3A4 worked out at 35 ± 3%. The “Hepatocyte stability (% remaining after 2 h)” value in data set [5] was 70.4 ^7%. The “Hepatocyte stability T1/2” value in data set [5] is 277.3 ^7 min.
